Laboratory results taken from patent US20250281498A1, “FUSED AMINO PYRIMIDINE COMPOUNDS FOR TREATMENT OF SYNUCLEINOPATHIES AND TDP-43 PROTEINOPATHIES” (Ovid Therapeutics Inc., priority 2024, published 2025).

Experiments:
KCC2 [1] = target: T1, KCC2 (Homo sapiens, UniProt Q9H2X9); assay: cellular thermal shift assay (CETSA) in HEK-293 cells expressing KCC2; format: binding
T1 construct: expressed in transfected cells; host or cells: HEK-293 (ATCC CRL-1573)
T1 sequence (Q9H2X9 1-1116 isoform Q9H2X9-2): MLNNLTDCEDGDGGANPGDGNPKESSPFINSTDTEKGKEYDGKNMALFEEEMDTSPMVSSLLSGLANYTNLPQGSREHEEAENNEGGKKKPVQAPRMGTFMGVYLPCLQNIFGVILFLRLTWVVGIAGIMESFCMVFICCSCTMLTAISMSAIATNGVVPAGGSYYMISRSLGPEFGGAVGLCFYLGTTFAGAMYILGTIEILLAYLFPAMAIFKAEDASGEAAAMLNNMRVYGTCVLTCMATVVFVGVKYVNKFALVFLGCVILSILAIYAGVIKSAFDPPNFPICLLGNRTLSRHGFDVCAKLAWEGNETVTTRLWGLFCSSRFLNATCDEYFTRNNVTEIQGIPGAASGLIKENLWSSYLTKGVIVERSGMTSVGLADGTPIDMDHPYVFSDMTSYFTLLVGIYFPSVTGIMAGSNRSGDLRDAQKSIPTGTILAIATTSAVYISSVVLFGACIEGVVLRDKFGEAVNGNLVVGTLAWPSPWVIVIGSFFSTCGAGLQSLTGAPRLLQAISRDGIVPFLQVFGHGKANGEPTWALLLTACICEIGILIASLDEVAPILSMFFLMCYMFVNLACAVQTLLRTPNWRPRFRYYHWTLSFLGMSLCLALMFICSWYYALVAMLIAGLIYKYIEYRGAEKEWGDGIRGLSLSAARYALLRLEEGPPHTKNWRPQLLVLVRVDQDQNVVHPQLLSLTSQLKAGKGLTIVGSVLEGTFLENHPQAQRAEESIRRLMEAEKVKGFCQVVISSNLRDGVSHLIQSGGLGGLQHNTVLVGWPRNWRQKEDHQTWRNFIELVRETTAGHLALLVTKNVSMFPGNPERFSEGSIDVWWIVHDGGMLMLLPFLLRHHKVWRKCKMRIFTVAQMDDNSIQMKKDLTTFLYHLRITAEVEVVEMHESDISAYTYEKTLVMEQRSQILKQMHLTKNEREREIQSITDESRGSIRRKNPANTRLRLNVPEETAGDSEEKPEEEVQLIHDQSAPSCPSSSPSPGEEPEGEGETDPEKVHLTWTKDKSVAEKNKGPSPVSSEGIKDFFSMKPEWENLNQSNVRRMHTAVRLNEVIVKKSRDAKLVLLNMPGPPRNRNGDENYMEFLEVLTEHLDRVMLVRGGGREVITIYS
Experimental: (§1) Cell Culture and biotinylation. HEK-293 cells were purchased from ATCC (CRL-1573) and transfected with human KCC2 and GFP expression plasmids using Lipofectamine 2000. Cells were utilized for experimentation 48-72 h following transfection. Cells were biotinylated at 4° C. using NHS-Biotin. Following lysis and purification on immobilized avidin beads, cell surface and total fractions were subject to immunoblotting as outlined previously (Conway et al., 2017, supra).
Determining if compounds in SSA directly interact with KCC2. This was tested using a cellular thermal shift assay (CETSA), which measures the ability of a drug to modify the thermal stability of its target in whole cells (Kawatkar et al., ACS Chem. Biol. 14, 1913-1920 (2019); Martinez et al., Sci Rep 8, 9472 (2018)).
2×10^6 transfected HEK-293 cells were incubated with 30 μM drug or vehicle for 90 min at 37° C. and then heated from 37-58° C. for 5 min. Cells were rapidly chilled to 25° C. and NP40 was added to a final concentration […] to snap freezing in liquid nitrogen. […]
Aliquots of HEK-293 cells expressing KCC2 were exposed to 30 μM SSA, heated from 37-55° C. The remaining level of soluble native KCC2 at each temperature was measured by immunoblotting and normalized to the level seen at 37° C. which was given a value of 1. […]

[2] = system: acute brain slices exposed to 0-Mg; assay: late recurrent discharges in acute brain slices exposed to 0-Mg
[3] = system: 18-20 Div hippocampal neurons; assay: gramicidin-perforated patch-clamp recording of EGABA in hippocampal neurons; format: cell-based, Sprague Dawley; settings: 300 nM
Experimental: Neuronal Cultures. Hippocampal neurons were prepared from Sprague Dawley E18 embryos and plated at 450,000 per dish and maintained at 37° C. in a humidified 5% CO2 incubator for 10-25 days before experimentation (Lee et al., Nat. Neurosci. 14, 736-743 (2011)).
At this developmental stage, GABAAR receptor activation leads to hyperpolarization, a phenomenon critically dependent upon KCC2 (Kontou et al., J Biol Chem, 100364 (2021)).
Neuronal Patch clamp assays. Neuronal cell culture recordings were performed in bath saline at 34° C. For gramicidin perforated-patch experiments, pipettes contained (in mM): 140 KCl and 10 HEPES, pH 7.4 KOH. For whole-cell experiments, pipettes contained (in mM): 115 K-meth-SO4, 30 KCl, 2 Mg-ATP, 4 Na-ATP, 0.4 Na-GTP, and 10 HEPES, pH 7.4 KOH. Bath saline contained the following (in mM): 140 NaCl, 2.5 KCl, 2.5 CaCl2, 2.5 MgCl2, 10 HEPES, and 11 glucose, pH 7.4 NaOH (Kontou et al., 2021, supra). All compound solutions were applied to cells using a three-barreled 700 μm pipe positioned just above the cell (Warner Instruments). […] All voltages from whole-cell experiments were corrected offline using a calculated liquid junction potential value (13.6 mV) in Clampex (Molecular Devices). For gramicidin perforated-patch experiments, intracellular Cl^− values were back-calculated using measured EGABA values and the Nernst equation: […]

KCC2 [4] = target: T1, KCC2; assay: biotinylation, plasma membrane level of KCC2 in HEK-293 cells; format: cell-based; settings: 15 min
Experimental: as §1
The reliability of the biotinylation procedure was assessed via immunoblotting with antibodies against the cytosolic protein actin. Actin was present in the total lysates but was absent from the surface fractions (FIG. 2C).

`C[C@@H]1CN(c2nc3c(c(Nc4ccc(C5CCCCC5)cc4)n2)COC3)CCO1` [Compound A, (R)—N-(4-cyclohexylphenyl)-2-(2-methylmorpholino)-5,7-dihydrofuro[3,4-d]pyrimidin-4-amine] was tested, and the “direct binding to KCC2 as measured using CETSA” value (KCC2 [1]) was “capable of directly binding to KCC2”, the “development of late recurrent discharges (LRDs)” value [2] was “reduced” and the “reduction in neuronal Cl−” value ([3]; 15 min, calculated from EGABA) was 2.2 ± 0.6 mM. For the same compound, the EGABA after treatment ([3]; at 15 min (from −75±3.1 at 0 min), bumetanide and TTX present) was −85.1±4.2 mV, the “level of KCC2 on the plasma membrane (surface/total)” value (KCC2 [4]; 0.3 μM) was 94.5±8.4 % of control and the “level of KCC2 on the plasma membrane (surface/total)” value (KCC2 [4]; 3 μM) was 104.7±8.4 % of control.
